We go through 44 molecules from patent US7906656B2, “Iodopyrazolyl carboxanilides” (Bayer CropScience AG, priority 2003, dated 2011).

Each structure is given as a SMILES string.

For the first assay, the system named is Venturia inaequalis. Nature of the assay: Venturia test (apple)/protective. The assay is classed as in vivo. The settings on record: 240 h, protective, application rate 100 g/ha, evaluation 10 days after inoculation, read-out: Efficacy in %. The procedure: To produce a suitable preparation of active compound, 1 part by weight of active compound is mixed with the stated amounts of solvents and emulsifier, and the concentrate is diluted with water to the desired concentration. To test for protective activity, young plants are sprayed with the preparation of active compound at the stated application rate. After the spray coating has dried on, the plants are inoculated with an aqueous conidia suspension of the apple pathogen Venturia inaequalis and then remain in an incubation cabin at about 20° C. and 100% relative atmospheric humidity for 1 day. The plants are then placed in a greenhouse at about 21° C. and a relative atmospheric humidity of about 90%. Evaluation is carried out 10 days after the inoculation. 0% means an efficacy which corresponds to that of the control, whereas an efficacy of 100% means that no infection is observed.
`Cn1cc(C(=O)Nc2ccccc2-c2ccc(C(F)(F)F)cc2)c(I)n1` [drawing 78]: the pest or weed control at 100 g/ha came out at 94%.

In another assay the test system is Puccinia recondita. Briefly: Puccinia test (wheat)/protective. The assay is classed as in vivo. To be noted: 240 h, protective, application rate 500 g/ha, evaluation 10 days after inoculation, read-out: Efficacy in %. As to the method: (§1) To produce a suitable preparation of active compound, 1 part by weight of active compound is mixed with the stated amounts of solvent and emulsifier, and the concentrate is diluted with water to the desired concentration. To test for protective activity, young plants are sprayed with the preparation of active compound at the stated application rate. After the spray coating has dried on, the plants are sprayed with a conidia suspension of Puccinia recondita. The plants remain in an incubation cabin at 20° C. and 100% relative atmospheric humidity for 48 hours. The plants are then placed in a greenhouse at a temperature of about 20° C. and a relative atmospheric humidity of 80% to promote the development of rust pustules. Evaluation is carried out 10 days after the inoculation. 0% means an efficacy which corresponds to that of the control, whereas an efficacy of 100% means that no infection is observed.
`Cn1cc(C(=O)Nc2ccccc2-c2ccc(Cl)cc2)c(I)n1` [drawing 116]: the pest or weed control at 500 g/ha amounted to 100%. Turning to `Cn1cc(C(=O)Nc2ccccc2-c2ccc(C(F)(F)F)c(F)c2)c(I)n1` [drawing 119], the pest or weed control at 500 g/ha came to 100%. With `C=C(CC(C)(C)C)c1ccccc1NC(=O)c1cn(C)nc1I` [drawing 124], the pest or weed control at 500 g/ha stood at 100%.

Turning to `Cn1cc(C(=O)Nc2ccccc2-c2ccc(I)cc2)c(I)n1` [drawing 114], the pest or weed control at 500 g/ha came out at 100%.

With `CC(CC(C)(C)C)c1ccccc1NC(=O)c1cn(C)nc1I` (centres unmarked) [drawing 111], the pest or weed control at 500 g/ha is 100%. Take `CC(C)CC(C)c1ccccc1NC(=O)c1cn(C)nc1I` (centres unmarked) [drawing 112]: the pest or weed control at 500 g/ha stood at 100%. The same measure, in the same setting: with `Cn1cc(C(=O)Nc2ccccc2-c2ccc(Cl)c(F)c2)c(I)n1` [drawing 113] the figure was 100%; with `CC(C)CC(C)c1cc(F)ccc1NC(=O)c1cn(C)nc1I` (centres unmarked) [drawing 121], 100%. Same read-out and setting: with `CC(=O)N(C(=O)c1cn(C)nc1I)c1ccccc1C(C)CC(C)C` (centres unmarked) [drawing 120] the figure was 100%; with `CC(C)CCc1ccccc1NC(=O)c1cn(C)nc1I` [drawing 122], 100%. The same measure, in the same setting: the figure for `Cn1cc(C(=O)Nc2ccccc2-c2ccc(F)c(Cl)c2)c(I)n1` [drawing 117] is 100%; for `Cn1cc(C(=O)Nc2ccccc2-c2ccc(Cl)c(Cl)c2)c(I)n1` [drawing 115] it is 100%. On to `Cn1cc(C(=O)Nc2ccccc2-c2ccc(Br)cc2)c(I)n1` [drawing 118], for which the pest or weed control at 500 g/ha came to 100%.

On to `CC1CC(C)(C)c2cccc(NC(=O)c3cn(C)nc3I)c21` (centres unmarked) [drawing 123], for which the pest or weed control at 500 g/ha stood at 100%.

The test system of another assay is Alternaria solani. Briefly: Alternaria test (tomato)/protective. The format is in vivo. To be noted: protective, application rate 750 g/ha, evaluation 7 days after inoculation. As to the method: To produce a suitable preparation of active compound, 1 part by weight of active compound is mixed with the stated amounts of solvent and emulsifier, and the concentrate is diluted with water to the desired concentration. To test for protective activity, young tomato plants are sprayed with the preparation of active compound at the stated application rate. 1 day after the treatment, the plants are inoculated with a spore suspension of Alternaria solani and are then allowed to stand at 100% relative atmospheric humidity and 20° C. for 24 h. The plants are then allowed to stand at 96% relative atmospheric humidity and a temperature of 20° C. The evaluation is carried out 7 days after the inoculation. 0% means an efficacy which corresponds to that of the control, whereas an efficacy of 100% means that no infection is observed.
In turn, `Cn1cc(C(=O)Nc2ccccc2-c2ccc(F)c(Cl)c2)c(I)n1` [drawing 127] yielded an Efficacy in % of 100%. `Cn1cc(C(=O)Nc2ccc(F)cc2-c2ccc(Cl)c(Cl)c2)c(I)n1` [drawing 126]: the Efficacy in % came out at 100%. In turn, `Cn1cc(C(=O)Nc2ccccc2-c2ccc(I)cc2)c(I)n1` [drawing 125] returned an Efficacy in % of 100%.

A further assay relates to Pyrenophora teres. Briefly: Pyrenophora teres test (barley)/protective. The format is in vivo. To be noted: 192 h, protective, application rate 500 g/ha, evaluation 8 days after inoculation, read-out: Efficacy in %. As to the method: as §1, with “of Pyrenophora teres.” for “of Puccinia recondita.”, “of about 80%.” for “of 80% to promote the development of rust pustules.”, “out 8” for “out 10”
As to `Cn1cc(C(=O)Nc2ccccc2-c2ccc(I)cc2)c(I)n1` [drawing 104], the pest or weed control at 500 g/ha was 100%.

`CC(C)CC(C)c1ccccc1NC(=O)c1cn(C)nc1I` (centres unmarked) [drawing 102]: the pest or weed control at 500 g/ha is 100%. For the molecule `CC(=O)N(C(=O)c1cn(C)nc1I)c1ccccc1C(C)CC(C)C` (centres unmarked) [drawing 109], the pest or weed control at 500 g/ha was 100%. Still for that read-out and setting: the figure for `Cn1cc(C(=O)Nc2ccccc2-c2ccc(C(F)(F)F)c(F)c2)c(I)n1` [drawing 108] is 100%; for `Cn1cc(C(=O)Nc2ccccc2-c2ccc(Cl)c(F)c2)c(I)n1` [drawing 103] it is 100%; for `CC(C)CC(C)c1cc(F)ccc1NC(=O)c1cn(C)nc1I` (centres unmarked) [drawing 110] it is 100%. On to `CC(CC(C)(C)C)c1ccccc1NC(=O)c1cn(C)nc1I` (centres unmarked) [drawing 101], for which the pest or weed control at 500 g/ha amounted to 93%.

As to `Cn1cc(C(=O)Nc2ccccc2-c2ccc(F)c(Cl)c2)c(I)n1` [drawing 106], the pest or weed control at 500 g/ha came out at 100%.

Take `Cn1cc(C(=O)Nc2ccccc2-c2ccc(Cl)cc2)c(I)n1` [drawing 105]: the pest or weed control at 500 g/ha was found to be 100%. On the same count and under the same terms, the figure for `Cn1cc(C(=O)Nc2ccccc2-c2ccc(Br)cc2)c(I)n1` [drawing 107] is 100%.

Another assay deals with Botrytis cinerea. Nature of the assay: Botrytis test (bean)/protective. The assay is classed as in vivo. To be noted: 48 h, protective, application rate 100 g/ha, evaluation 2 days after inoculation, read-out: Efficacy in %. The procedure:
To produce a suitable preparation of active compound, 1 part by weight of active compound is mixed with the stated amounts of solvents and emulsifier, and the concentrate is diluted with water to the desired concentration. To test for protective activity, young plants are sprayed with the preparation of active compound at the stated application rate. After the spray coating has dried on, 2 small pieces of agar colonized with Botrytis cinerea are placed onto each leaf. The inoculated plants are placed in a darkened chamber at about 20° C. and 100% relative atmospheric humidity. 2 days after the inoculation, the size of the infected areas on the leaves is evaluated. 0% means an efficacy which corresponds to that of the control, whereas an efficacy of 100% means that no infection is observed.
`CC(C)CCc1ccccc1NC(=O)c1cn(C)nc1I` [drawing 98]: the pest or weed control at 100 g/ha turned out to be 98%. In the case of `CC(C)CC(C)c1cc(F)ccc1NC(=O)c1cn(C)nc1I` (centres unmarked) [drawing 100], the pest or weed control at 100 g/ha stood at 100%.

Take `CC1CC(C)(C)c2cccc(NC(=O)c3cn(C)nc3I)c21` (centres unmarked) [drawing 99]: the pest or weed control at 100 g/ha is 100%. The same measure, in the same setting: the figure for `Cn1cc(C(=O)Nc2ccccc2-c2ccc(Cl)cc2)c(I)n1` [drawing 96] is 100%.

Consider `Cn1cc(C(=O)Nc2ccccc2-c2ccc(I)cc2)c(I)n1` [drawing 97], for which the pest or weed control at 100 g/ha amounted to 100%.

As to `Cn1cc(C(=O)Nc2ccc(F)cc2-c2ccc(Cl)c(Cl)c2)c(I)n1` [drawing 88], the pest or weed control at 100 g/ha was determined as 100%.

Staying with this assay, now noted: 48 h, protective, application rate 500 g/ha, evaluation 2 days after inoculation, read-out: Efficacy in %.
Consider `CC(C)CC(C)c1ccccc1NC(=O)c1cn(C)nc1I` (centres unmarked) [drawing 86], for which the pest or weed control at 500 g/ha came out at 100%.

For the molecule `Cn1cc(C(=O)Nc2ccccc2-c2ccc(F)c(Cl)c2)c(I)n1` [drawing 89], the pest or weed control at 500 g/ha worked out at 100%. The same measure, in the same setting: with `Cc1ccc(-c2ccccc2NC(=O)c2cn(C)nc2I)cc1F` [drawing 93] the figure was 100%; with `Cn1cc(C(=O)Nc2ccccc2-c2ccc(Br)cc2)c(I)n1` [drawing 90], 100%.

For `Cn1cc(C(=O)Nc2ccccc2-c2ccc(Cl)c(Cl)c2)c(I)n1` [drawing 87], the pest or weed control at 500 g/ha came to 100%.

Regarding `Cn1cc(C(=O)Nc2ccccc2-c2ccc(C(F)(F)F)cc2)c(I)n1` [drawing 94], the pest or weed control at 500 g/ha stood at 94%. With `Cn1cc(C(=O)Nc2ccccc2-c2ccc(C(F)(F)F)c(F)c2)c(I)n1` [drawing 95], the pest or weed control at 500 g/ha is 100%. On the same count and under the same terms, with `CC(CC(C)(C)C)c1ccccc1NC(=O)c1cn(C)nc1I` (centres unmarked) [drawing 85] the figure was 100%; with `Cn1cc(C(=O)Nc2ccccc2-c2ccc(Cl)c(F)c2)c(I)n1` [drawing 91], 100%; with `CCCO/N=C/c1ccc(-c2ccccc2NC(=O)c2cn(C)nc2I)cc1F` [drawing 92], 100%.
